Structures can show the parent of a compound that is named as a salt.

In the test the test system is Drosophila larvae expressing wild-type TDP-43 in motor neurons. The test can be described thus: Drug screen: rescue of lethality caused by wild-type TDP-43 expression in motor neurons (D42 Gal4). The conditions noted are these: for Preliminary rescue result: adults with normal wings: transgene WT2. The class given is in vivo. The source says:
[…] Larvae expressing TDP-43 (wild type or mutant, as shown) are raised on drug containing food.
[…] Larvae expressing TDP-43 (wt or mutant) were raised on drug containing food.
Using a Drosophila model of ALS based on TDP-43 that recapitulates several aspects of the disease pathophysiology (33, 35), a drug screen aimed at identifying FDA approved compounds with neuroprotective potential in vivo were designed (FIG. 37A). […] This phenotype was used to screen for drug candidates with therapeutic potential as determined by their ability to rescue pupal lethality and produce viable adults with extended wings (FIG. 37A). […]
UAS TDP-43 males were crossed with D42-Gal4 female virgins on fly food containing either DMSO or pioglitazone. For DMSO controls, the same volume of DMSO as the corresponding drug concentration was added. Bromophenol blue was added to a final concentration of approximately 0.02% to ensure homogeneity. Crosses were made on drug food with 3 female virgins and 2 males in each vial, and were maintained at 25° C. unless noted. The parents were discarded after 5-7 days then the vials were screened for adult progeny with straight wings from day 14 to day 25. All adults were screened for TDP-43 expression by visualizing the YFP tag. Total number of pupae was counted on day 25. Percent survival was calculated using the formula (total number of straight-winged adults/total number of pupae)×100. All experiments were performed in triplicate.

In the case of `COc1ccc(C(=O)c2ccccc2O)c(O)c1` [Dioxybenzone], the “Preliminary rescue result: adults with normal wings” value (“Preliminary rescue result: adults” below) (30 μM in fly food) is 14 Adult Normal Wings Adults.
Same read-out and setting: then `COc1cc2nc(N3CCN(C(=O)C4COc5ccccc5O4)CC3)nc(N)c2cc1OC` (stereo not shown) [Doxazosin Mesylate], with 1 Adult Normal Wings Adults; and `CCN(CC)CCOC(=O)C(c1ccccc1)C1CCCCC1` (stereo not shown) [Drofenine HCl], with 1 Adult Normal Wings Adults.
As for `CCn1cc(C(=O)O)c(=O)c2cc(F)c(N3CCNCC3)nc21` [Enoxacin], the “Preliminary rescue result: adults” value (50 μM in fly food) came to 3 Adult Normal Wings Adults.
Take `CCCCC(=O)O[C@H]1CC[C@H]2[C@@H]3CCc4cc(O)ccc4[C@H]3CC[C@]12C` [Estradiol Valerate]: the “Preliminary rescue result: adults” value (30 μM in fly food) was 1 Adult Normal Wings Adults.
In the case of `CCN(CC)C(=O)c1ccc(O)c(OC)c1` [Ethamivan], the “Preliminary rescue result: adults” value (50 μM in fly food) was determined as 1 Adult Normal Wings Adults.
As for `C#C[C@]1(O)CC[C@H]2[C@@H]3CCc4cc(OC)ccc4[C@H]3CC[C@@]21C` [Ethynyletradiol 3-Methyl Ether], the “Preliminary rescue result: adults” value (30 μM in fly food) was determined as 5 Adult Normal Wings Adults.
`CCNCC(O)c1cccc(O)c1.Cl` (stereo not shown) [Etilifrine Hydrochloride]: the “Preliminary rescue result: adults” value (30 μM in fly food) stood at 1 Adult Normal Wing Adults.
For the compound `CC1CC(OC(=O)C(O)c2ccccc2)CC(C)(C)N1C` (stereo not shown) [Eucatropine HCl], the “Preliminary rescue result: adults” value (30 μM in fly food) came out at 1 Adult Normal Wings Adults.
Regarding `O=C(O)Cc1ccc(-c2ccccc2)cc1` [Felbinac], the “Preliminary rescue result: adults” value (30 μM in fly food) is 1 Adult Normal Wings Adults.
Still for that read-out and setting: then `CC(C(=O)[O-])c1cccc(Oc2ccccc2)c1.CC(C(=O)[O-])c1cccc(Oc2ccccc2)c1.O.O.[Ca+2]` (stereo not shown) [Fenoprofen Ca Salt Dihydrate], with 2 Adult Normal Wings Adults; and `CC(C)(C(=O)O)c1ccc(C(O)CCCN2CCC(C(O)(c3ccccc3)c3ccccc3)CC2)cc1` (stereo not shown) [Fexofenadine Hcl], with 1 Adult Normal Wings Adults.
Turning to `O=C(COc1ccc(Cl)cc1)N1CCN(Cc2ccc3c(c2)OCO3)CC1` [Fipexide Hydrochloride], the “Preliminary rescue result: adults” value (50 μM in fly food) is recorded as 1 Adult Normal Wings Adults.
With `OC(Cn1cncn1)(Cn1cncn1)c1ccc(F)cc1F` [Fluconazole], the “Preliminary rescue result: adults” value (50 μM in fly food) is 1 Adult Normal Wings Adults.
On the same count and under the same terms, for `C[C@]12CCC(=O)C=C1CC[C@H]1[C@@H]3CC[C@](O)(C(=O)CO)[C@@]3(C)C[C@H](O)[C@@]12F` [Fludrocortisone] the value was 2 Adults Normal Wings.
For the compound `CCC(=O)O[C@]1(C(=O)SCF)[C@H](C)C[C@H]2[C@@H]3C[C@H](F)C4=CC(=O)C=C[C@]4(C)[C@@]3(F)[C@@H](O)C[C@@]21C` [Fluticasone Propionate], for the setting “30 μM in fly food”, the “Preliminary rescue result: adults” value was determined as 1 Adult Normal Wings Adults.
Still for that read-out and setting: then `COc1ccc2c(c1)C(=O)N(CCc1ccc(S(=O)(=O)NC(=O)NC3CCCCC3)cc1)C(=O)C2(C)C` [Gliquidone], with 7 Adult Normal Wings Adults; and `Oc1c(Cl)cc(Cl)c(Cl)c1Cc1c(O)c(Cl)cc(Cl)c1Cl` [Hexachlorophene], with 1 Adult Normal Wings Adults; and `CC(CNC1CCCCC1)OC(=O)c1ccccc1` (stereo not shown) [Hexylcaine HCl], with 6 Adults Normal Wings.
On the same count and under the same terms, then `CC(C)Cn1cnc2c(N)nc3ccccc3c21` [Imiquimod], with 2 Adult Normal Wings Adults; and `C[C@H](O)C(=O)Nc1c(I)c(C(=O)NC(CO)CO)c(I)c(C(=O)NC(CO)CO)c1I` [Iopamidol], with 3 Adult Normal Wings Adults.
On the same count and under the same terms, then `COCC(=O)Nc1c(I)c(C(=O)NCC(O)CO)c(I)c(C(=O)N(C)CC(O)CO)c1I` (stereo not shown) [Iopromide], with 1 Adult Normal Wings Adults.
As for `CC(C(=O)O)c1cccc(C(=O)c2ccccc2)c1` (stereo not shown) [Ketoprofen], the “Preliminary rescue result: adults” value (50 μM in fly food) turned out to be 1 Adult Normal Wings Adults.
Consider `O=C(c1ccccc1)c1ccc2n1CCC2C(=O)O` (stereo not shown) [Ketorolac Tromethamine], for which, for the setting “30 μM in fly food”, the “Preliminary rescue result: adults” value is recorded as 2 Adult Normal Wings Adults.
On to `CCC(=O)O[C@@](Cc1ccccc1)(c1ccccc1)[C@@H](C)CN(C)C` [Levopropoxyphene Napsylate], for which, under “30 μM in fly food”, the “Preliminary rescue result: adults” value is on record as 2 Adult Normal Wings Adults.
Still for that read-out and setting: for `N[C@@H](Cc1cc(I)c(Oc2ccc(O)c(I)c2)c(I)c1)C(=O)O` [Liothyronine] the value was 3 Adult Normal Wings Adults.
Regarding `C[C@H](CCC(=O)O)[C@H]1CC[C@H]2[C@@H]3CC[C@@H]4C[C@H](O)CC[C@]4(C)[C@H]3CC[C@]12C` [Lithocholic Acid], where the note is “30 μM in fly food”, the “Preliminary rescue result: adults” value turned out to be 7 Adult Normal Wings Adults.
For `O=c1cc(-c2ccc(O)c(O)c2)oc2cc(O)cc(O)c12` [Luteolin], under “30 μM in fly food”, the “Preliminary rescue result: adults” value came out at 1 Adult Normal Wings Adults.
Regarding `COc1ccc2[nH]cc(CCNC(C)=O)c2c1` [Melatonin], the “Preliminary rescue result: adults” value (50 μM in fly food) came to 4 Adults Normal Wings.
For the compound `CCC1(c2ccccc2)NC(=O)N(C)C1=O` (stereo not shown) [Mephenytoin], the “Preliminary rescue result: adults” value (30 μM in fly food) is given as 2/1.
Consider `CCCNC(C)(C)COC(=O)c1ccccc1` [Meprylcaine HCl], for which, where the note is “30 μM in fly food”, the “Preliminary rescue result: adults” value is listed as 1 Adult Normal Wings Adults.
In the case of `O=S(=O)(O)CCS` [Mesna], the “Preliminary rescue result: adults” value (50 μM in fly food) amounted to 4 Adult Normal Wings Adults.
On to `CN(C)C(=N)N=C(N)N` [Metformin], for which the “Rescue Effect (out of 15-20 pupae) (drug conc.)” value (Wild-type TDP-43, 25 μM, out of 15-20 pupae) is 2 adults.
On to `CC[N+](C)(CC)CCOC(=O)C1c2ccccc2Oc2ccccc21` [Methantheline Bromide], for which the “Preliminary rescue result: adults” value (30 μM in fly food) was found to be 1 Adult Normal Wings Adults.
On to `Cn1cc[nH]c1=S` [Methimazole], for which, where the note is “30 μM in fly food”, the “Preliminary rescue result: adults” value is reported as 1 Adult Normal Wings Adults.
Still for that read-out and setting: for `C[N+]1(C)[C@@H]2CC[C@H]1C[C@@H](OC(=O)C(CO)c1ccccc1)C2` (stereo partly shown) [Methylatropine Nitrate] the value was 2 Adult Normal Wings Adults.
Consider `CC(=O)Nc1c(I)c(C(=O)N[C@H]2C(O)O[C@H](CO)[C@@H](O)[C@@H]2O)c(I)c(N(C)C(C)=O)c1I` (stereo partly shown) [Metrizamide], for which, where the note is “50 μM in fly food”, the “Preliminary rescue result: adults” value was 2 Adults Normal Wings.
For the compound `Cc1cc(-c2ccccc2)nnc1NCCN1CCOCC1` [Minaprine Dihydrochloride], the “Preliminary rescue result: adults” value (50 μM in fly food) amounted to 1 Adult Normal Wings Adults.
For `Cc1ccsc1/C=C/C1=NCCCN1C` [Morantel Tartrate], the “Preliminary rescue result: adults” value (50 μM in fly food) came out at 1 Adult Normal Wings Adults.
Regarding `CC(=O)N[C@@H](CC(C)C)C(=O)O` [N-Acetyl-L-Leucine], the “Preliminary rescue result: adults” value (30 μM in fly food) is on record as 1 Adult Normal Wings Adults.
Turning to `CN(C)C(=O)Oc1cccc([N+](C)(C)C)c1` [Neostigmine Bromide], under “50 μM in fly food”, the “Preliminary rescue result: adults” value is recorded as 5 Adults Straight Wings.
Consider `CC1(C)NC(=O)N(c2ccc([N+](=O)[O-])c(C(F)(F)F)c2)C1=O` [Nilutamide], for which the “Preliminary rescue result: adults” value (30 μM in fly food) is recorded as 11 Adult Normal Wings Adults.
With `O=C1NCCN1c1ncc([N+](=O)[O-])s1` [Niridazole], the “Preliminary rescue result: adults” value (50 μM in fly food) is listed as 3 Adult Normal Wings Adults.
Consider `CNC(=C[N+](=O)[O-])NCCSCc1csc(CN(C)C)n1` [Nizatidine], for which the “Preliminary rescue result: adults” value (30 μM in fly food) is 2 Adult Normal Wings Adults.
Still for that read-out and setting: for `Cc1nccn1CC1CCc2c(c3ccccc3n2C)C1=O` (stereo not shown) [Ondansetron Hcl] the value was 1 Adult Normal Wings Adults; for `C=CCOc1ccccc1OCC(O)CNC(C)C` (stereo not shown) [Oxprenolol Hcl], 1 Adult Normal Wings Adults; for `COc1ccc(C(=O)c2ccccc2)c(O)c1` [Oxybenzone], 1 Adult Normal Wings Adults.
With `CCCCc1ccc2[nH]c(NC(=O)OC)nc2c1` [Parbendazole], the “Preliminary rescue result: adults” value (30 μM in fly food) is reported as 2/1.
As for `C#CCN(C)Cc1ccccc1` [Pargyline Hydrochloride], the “Preliminary rescue result: adults” value (50 μM in fly food) was 1 Adult Normal Wings Adults.
For the compound `CC(C)(C)NC[C@H](O)COc1ccccc1C1CCCC1` [Penbutolol Sulfate], the “Preliminary rescue result: adults” value (30 μM in fly food) was 1 Adult Normal Wings Adults.
The same measure, in the same setting: for `Nc1ccc(/N=N/c2ccccc2)c(N)n1` [Phenazopyridine Hydrochloride] the value was 1 Adult Normal Wings Adults.
On to `CC(N)C(O)c1ccccc1` (stereo not shown) [Phenylpropanolamine Hydrochloride], for which the “Preliminary rescue result: adults” value (50 μM in fly food) is listed as 1 Adult: 1 Normal Wing Adults.
In the case of `COc1cc([C@@H]2c3cc4c(cc3[C@H](O)[C@H]3COC(=O)[C@H]23)OCO4)cc(OC)c1OC` [Podophyllotoxin], where the note is “30 μM in fly food”, the “Preliminary rescue result: adults” value is recorded as 8 Adult Normal Wings Adults.
On the same count and under the same terms, then `COc1cc2nc(N3CCN(C(=O)c4ccco4)CC3)nc(N)c2cc1OC` [Prazosin Hydrochloride], with 1 Adult Normal Wings Adults; and `CCOC(=O)O[C@]1(C(=O)COC(=O)CC)CC[C@H]2[C@@H]3CCC4=CC(=O)C=C[C@]4(C)[C@H]3[C@@H](O)C[C@@]21C` [Prednicarbate], with 2 Adult Normal Wings Adults.

Source of the values: patent US20150143553A1, “Methods And Compositions Comprising A Drosophila Model Of Amyotrophic Lateral Sclerosis” (priority 2013, published 2015).
